What all share (type): cell-based
The test system of test [1] is SAS cells. The test is described as follows: SAS CTG proliferation assay (120 h) (HNSCC, wt amplified). Here is the method: SAS CTG Proliferation Assay (120 h) (HNSCC, Wt Amplified)
(§1) SAS cells (JCRB0260) are dispensed into 384-well plates, flat and clear bottom (Greiner, PNr. 781091) at a density of 300 cells per well in 60 μL DMEM:F12 (Gibco 31330-038)+10% Fetal Calf Serum (HyClone, PNr.: SH30084.03) and incubated at 37° C. in a CO2 incubator overnight. The next day, compounds (10 mM stock in DMSO) are added with the ECHO acoustic liquid handler system (Beckman Coulter), including DMSO controls. Plates are incubated for 120 h, and cell viability is measured using CellTiter-Glo luminescent cell viability reagent (Promega product code G7570). Viability (stated as percent of control) is defined as relative luminescence units RLU of each well divided by the RLU of cells in DMSO controls. IC50 values are determined from viability measurements by non-linear regression using a four-parameter model.

The test system of test [2] is LOVO cells. The test is described as follows: LOVO CTG proliferation assay (120 h) (CRC, G13D). As to conditions: Homo sapiens. Here is the method:
LOVO CTG Proliferation Assay (120 h) (CRC, G13D)
as §1, with “LOVO cells (ATCC” for “SAS cells (JCRB0260)”, “LOVO cells (ATCC CCL-229) are dispensed” for “SAS cells (JCRB0260) are dispensed”, “density of 1000 cells per” for “density of 300 cells per”, “60 μL DMEM (Sigma D6429)+10% Fetal Calf” for “60 μL DMEM:F12 (Gibco 31330-038)+10% Fetal Calf”

The test system of test [3] is SK—CO-1 cells. In words: SK-CO-1 CTG proliferation assay (120 h) (CRC, G12V). The settings on record: Homo sapiens, SK-CO-1 proliferation. On the procedure: SK—CO-1 CTG Proliferation Assay (120 h) (CRC, G12V)
as §1, with “SK—CO-1 cells (ATCC” for “SAS cells (JCRB0260)”, “SK—CO-1 cells (ATCC HTB-39) are dispensed” for “SAS cells (JCRB0260) are dispensed”, “density of 500 cells per” for “density of 300 cells per”, “60 μL EMEM (Sigma M5650)+10% Fetal Calf” for “60 μL DMEM:F12 (Gibco 31330-038)+10% Fetal Calf”

Test [4] concerns the target T1, KRAS(G12D) (Homo sapiens, UniProt P01116, G12D).
T1 construct: introduced immediately downstream of the initiating Methionine codon of the endogenous KRAS locus; host or cells: GP5d-HiBit-KRAS(G12D), a CRISPR knock-in at the endogenous locus
In words: HiBit degradation assay in GP5d-HiBit-KRAS(G12D) cells (18 h; DC50, Dmax). In short, it runs like this: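 GP5d cells carry an endogenous N-terminal HiBit tag on KRAS(G12D), knocked in by CRISPR. They were seeded overnight in DMEM/10% FCS, exposed to compound for 18 h at 37° C, then lysed for HiBit luminescence, normalised to DMSO. DC50 comes from a four-parameter logistic fit; Dmax is maximal degradation as % of control.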
For orientation: With HiBiT, luminescence reflects the tagged protein that the partner subunit can reach.

Test [5] deals with NCI-H358 cells. In words: NCI-H358 CTG proliferation assay (120 h) (NSCLC, G12C). As to conditions: Homo sapiens. In short, it runs like this:
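NCI-H358 cells (KRAS G12C) were seeded at 2000/well (assay 1) or 200/well (assay 2) in RPMI-1640 + 10% FCS and dosed with a logarithmic series, DMSO-normalized. After 120 h, viability was read by CellTiter-Glo luminescence as percent of DMSO control, with a T0 read at dosing. IC50 came from a four-parameter fit.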

[6] abbreviates: assay 1, read-out: H358 (assay 1) IC50.
The mark [7] stands for this setting: assay 2, read-out: H358 (assay 2) IC50.

Where two headings read alike, the source gives them in different places.

T1 sequence (P01116 1-188 isoform P01116-2 G12D): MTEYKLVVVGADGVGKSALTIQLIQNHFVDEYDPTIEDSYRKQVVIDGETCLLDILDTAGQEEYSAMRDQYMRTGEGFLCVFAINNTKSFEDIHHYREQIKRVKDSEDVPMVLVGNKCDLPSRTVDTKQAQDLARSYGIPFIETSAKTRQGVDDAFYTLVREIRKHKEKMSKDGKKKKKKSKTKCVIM

For the compound `Cc1ncsc1-c1ccc(CNC(=O)[C@@H]2C[C@@H](O)CN2C(=O)[C@H](c2cc(OCCCN3CCCN(c4nccc(-c5noc([C@@]6(C)CCCc7sc(N)c(C#N)c76)n5)n4)[C@@H](C)C3)no2)C(C)C)cc1` (single isomer, unassigned) [I-24], the IC50 in test [1] was 1310 nM; in test [2], 1950 nM; in test [3], 2220 nM; in test [5] (setting [6]), 1070 nM; in test [5] (setting [7]), 1440 nM. In test [4], this compound showed a DC50 of 200 nM. Also, the “Dmax 18 h” value in test [4] was found to be 81 % Ctrl.
Consider `Cc1ncsc1-c1ccc(CNC(=O)[C@@H]2C[C@@H](O)CN2C(=O)[C@@H](c2cc(OCCCN3CCCN(c4nccc(-c5noc([C@@]6(C)CCCc7sc(N)c(C#N)c76)n5)n4)[C@@H](C)C3)no2)C(C)C)cc1` (single isomer, unassigned) [I-25], for which the IC50 in test [1] was 17.8 nM; in test [2], 53.5 nM; in test [3] it was 57.3 nM; in test [5] (setting [6]), 45.6 nM; in test [5] (setting [7]) it was 63.9 nM. The same compound returned a DC50 in test [4] of 2.3 nM. The “Dmax 18 h” value in test [4] is 94 % Ctrl.
`Cc1ncsc1-c1ccc(CNC(=O)[C@@H]2C[C@@H](O)CN2C(=O)[C@@H](c2cc(OCCCCN3CCCN(c4nccc(-c5noc([C@@]6(C)CCCc7sc(N)c(C#N)c76)n5)n4)[C@@H](C)C3)no2)C(C)C)cc1` (single isomer, unassigned) [I-27]: the IC50 in test [1] is 94.6 nM; in test [2], 40.9 nM; in test [3] it was 51.7 nM; in test [5] (setting [6]), 60.5 nM; in test [5] (setting [7]) it was 35.2 nM. This compound yielded a DC50 in test [4] of 2.9 nM. For the same compound, in test [4], the “Dmax 18 h” value stood at 93 % Ctrl.
Take `Cc1ncsc1-c1ccc([C@@H](NC(=O)[C@@H]2C[C@@H](O)CN2C(=O)[C@H](C(C)C)n2cc(OCCCCN3CCCN(c4nccc(-c5noc([C@@]6(C)CCCc7sc(N)c(C#N)c76)n5)n4)[C@@H](C)C3)nn2)[C@H](C)O)cc1` (single isomer, unassigned) [I-41]: the IC50 is 30.3 nM in test [1]; 29.3 nM in test [2]; 22.6 nM in test [3]; 59.6 nM in test [5] (setting [6]); 14.9 nM in test [5] (setting [7]). Moreover, half-maximal degradation in test [4] (DC50) was put at 1.6 nM. Besides, the “Dmax 18 h” value in test [4] is given as 94 % Ctrl.
Turning to `Cc1ncsc1-c1ccc([C@@H](NC(=O)[C@@H]2C[C@@H](O)CN2C(=O)[C@H](C(C)C)n2cc(OCCCN3CCCN(c4nccc(-c5noc([C@@]6(C)CCCc7sc(N)c(C#N)c76)n5)n4)[C@@H](C)C3)nn2)[C@H](O)C(C)C)cc1` (single isomer, unassigned) [I-43], the IC50 was 411 nM in test [1]; 22.2 nM in test [2]; 26.2 nM in test [3]; 50.8 nM in test [5] (setting [6]); 8.1 nM in test [5] (setting [7]). In addition, half-maximal degradation in test [4] (DC50) was put at 1.2 nM. Further, in test [4], the “Dmax 18 h” value came out at 93 % Ctrl.
In the case of `Cc1ncsc1-c1ccc([C@@H](NC(=O)[C@@H]2C[C@@H](O)CN2C(=O)[C@H](C(C)C)n2cc(OCCCCN3CCCN(c4nccc(-c5noc([C@@]6(C)CCCc7sc(N)c(C#N)c76)n5)n4)[C@@H](C)C3)nn2)[C@H](O)C(C)C)cc1` (single isomer, unassigned) [I-45], the IC50 amounted to 1810 nM in test [1]; 43 nM in test [2]; 33.3 nM in test [3]; 98.6 nM in test [5] (setting [6]); 13.4 nM in test [5] (setting [7]). In test [4], half-maximal degradation (DC50) was put at 1.4 nM. Moreover, in test [4], the “Dmax 18 h” value was 93 % Ctrl.
On to `Cc1ncsc1-c1ccc(CNC(=O)[C@@H]2C[C@@H](O)CN2C(=O)C(c2cc(OCCCCN3CCCN(c4nccc(-c5cc([C@@]6(C)CCCc7sc(N)c(C#N)c76)on5)n4)[C@@H](C)C3)no2)C(C)C)cc1` (stereo partly drawn) [I-4], for which the IC50 amounted to 628 nM in test [1]; 425 nM in test [2]; 207 nM in test [3]; 445 nM in test [5] (setting [6]); 196 nM in test [5] (setting [7]). This compound had a DC50 in test [4] of 4.3 nM. In test [4], the “Dmax 18 h” value is reported as 94 % Ctrl.
`CC(C)C(C(=O)N1C[C@H](O)C[C@H]1C(=O)NCc1ccc(C#N)cc1)c1cc(OCCCCN2CCCN(c3nccc(-c4noc([C@@]5(C)CCCc6sc(N)c(C#N)c65)n4)n3)[C@@H](C)C2)no1` (stereo partly drawn) [I-16]: the IC50 in test [1] was found to be 29.7 nM; in test [2] it was 1820 nM; in test [3], 184 nM; in test [5] (setting [6]) it was 231 nM; in test [5] (setting [7]) it was 85.5 nM. Besides, half-maximal degradation in test [4] (DC50) was put at 3.9 nM. Further, the “Dmax 18 h” value in test [4] was determined as 91 % Ctrl.
Regarding `Cc1ncsc1-c1ccc([C@H](C)NC(=O)[C@@H]2C[C@@H](O)CN2C(=O)C(C(C)C)n2cc(OCCCCN3CCCN(c4nccc(-c5noc([C@@]6(C)CCCc7sc(N)c(C#N)c76)n5)n4)[C@@H](C)C3)nn2)cc1` (stereo partly drawn) [I-28], the IC50 in test [1] turned out to be 58.3 nM; in test [2] it was 649 nM; in test [3], 45 nM; in test [5] (setting [6]), 32 nM; in test [5] (setting [7]) it was 81.4 nM. For the same compound, the DC50 in test [4] was 1.5 nM. The “Dmax 18 h” value in test [4] was 93 % Ctrl.
For `Cc1ncsc1-c1ccc([C@H](CO)NC(=O)[C@@H]2C[C@@H](O)CN2C(=O)[C@H](C(C)C)n2cc(OCCCCN3CCCN(c4nccc(-c5noc([C@@]6(C)CCCc7sc(N)c(C#N)c76)n5)n4)[C@@H](C)C3)nn2)cc1` [I-29], the IC50 in test [1] worked out at 548 nM; in test [2] it was 44 nM; in test [3], 24.3 nM; in test [5] (setting [6]) it was 28.8 nM. The DC50 in test [4] was 2 nM. Moreover, in test [4], the “Dmax 18 h” value was determined as 93 % Ctrl.
Turning to `Cc1ncsc1-c1ccc([C@H](CO)NC(=O)[C@@H]2C[C@@H](O)CN2C(=O)[C@H](C(C)C)n2cc(OCCCC(C)N3CCCN(c4nccc(-c5noc([C@@]6(C)CCCc7sc(N)c(C#N)c76)n5)n4)[C@@H](C)C3)nn2)cc1` (stereo partly drawn) [I-30], the IC50 turned out to be 15.2 nM in test [1], 86.4 nM in test [2], 29.7 nM in test [3] and 29.3 nM in test [5] (setting [6]). Moreover, half-maximal degradation in test [4] (DC50) was put at 1.4 nM. The “Dmax 18 h” value in test [4] came to 94 % Ctrl.
As to `Cc1ncsc1-c1ccc([C@H](CO)NC(=O)[C@@H]2C[C@@H](O)CN2C(=O)[C@H](C(C)C)n2cc(OC(C)CCCN3CCCN(c4nccc(-c5noc([C@@]6(C)CCCc7sc(N)c(C#N)c76)n5)n4)[C@@H](C)C3)nn2)cc1` (stereo partly drawn) [I-31], the IC50 in test [1] turned out to be 90 nM; in test [2], 344 nM; in test [3] it was 132 nM; in test [5] (setting [6]) it was 159 nM. In test [4], this compound had a DC50 of 4.4 nM. Further, the “Dmax 18 h” value in test [4] came to 93 % Ctrl.
For `Cc1ncsc1-c1ccc([C@H](CCO)NC(=O)[C@@H]2C[C@@H](O)CN2C(=O)[C@H](C(C)C)n2cc(OCCCCN3CCCN(c4nccc(-c5noc([C@@]6(C)CCCc7sc(N)c(C#N)c76)n5)n4)[C@@H](C)C3)nn2)cc1` [I-38], the IC50 stood at 58.1 nM in test [1], 597 nM in test [2], 117 nM in test [3] and 98.8 nM in test [5] (setting [6]). This compound also displayed a DC50 in test [4] of 3.3 nM. For the same compound, the “Dmax 18 h” value in test [4] came to 93 % Ctrl.

Usually IC50 stands for the midpoint of a concentration-inhibition curve. Usually DC50 stands for the concentration at which degradation of the target reaches its halfway point.
